# From patent US20260144788A1, “COMPOUND FOR SHP2 PROTEIN DEGRADATION AND MEDICAL USES THEREOF” (UBIX THERAPEUTICS, INC., priority 2022, published 2026)
# Biological target: T1, SHP2 protein (Homo sapiens, UniProt Q06124)
# T1 sequence (Q06124 1-593): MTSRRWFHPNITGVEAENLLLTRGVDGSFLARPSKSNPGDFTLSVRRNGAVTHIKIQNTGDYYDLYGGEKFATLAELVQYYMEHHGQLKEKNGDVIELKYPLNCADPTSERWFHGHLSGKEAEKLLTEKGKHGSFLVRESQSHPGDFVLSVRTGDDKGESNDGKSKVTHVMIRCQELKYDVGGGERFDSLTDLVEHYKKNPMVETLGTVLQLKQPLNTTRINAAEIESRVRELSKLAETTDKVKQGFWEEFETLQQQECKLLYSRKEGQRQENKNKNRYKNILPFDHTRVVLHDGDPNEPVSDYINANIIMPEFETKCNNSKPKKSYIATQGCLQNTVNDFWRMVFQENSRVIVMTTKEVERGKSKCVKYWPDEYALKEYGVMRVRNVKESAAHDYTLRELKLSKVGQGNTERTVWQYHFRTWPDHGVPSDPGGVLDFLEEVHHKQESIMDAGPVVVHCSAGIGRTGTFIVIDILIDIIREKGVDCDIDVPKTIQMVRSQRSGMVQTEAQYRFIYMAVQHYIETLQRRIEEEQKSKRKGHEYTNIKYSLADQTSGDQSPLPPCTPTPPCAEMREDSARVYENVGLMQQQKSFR
# Assay: Measurement of SHP2 protein degradation in MV-4-11 cells (western blotting)
# Type: cell-based
# Parameters: endogenous in cells
# Conditions: harvested after 24 hours
# Outline: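 MV-4-11 cells in IMDM/5% FBS were exposed to compound at final 0.01, 0.1, 1 μM or 0.001, 0.01, 0.1 μM for 24 h, DMSO as negative control. BCA-normalised lysates were immunoblotted for SHP2 with GAPDH as loading control, read on LI-COR Odyssey.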
Structure (SMILES),SHP2% degradation (0.01 μM) [%],SHP2% degradation (0.1 μM) [%]
"Cc1ncsc1-c1ccc(CNC(=O)[C@@H]2C[C@@H](O)CN2C(=O)[C@@H](NC(=O)C2(F)CC2)C(C)(C)C)c(O[C@H]2CC[C@H](C(=O)N3CCN(c4nccc(Sc5cnc(N6CCC(C)(CN)CC6)cn5)c4Cl)CC3)CC2)c1 [Example 26, (2S,4R)—N-(2-(((1R,4S)-4-(4-(4-((5-(4-(aminomethyl)-4-methylpiperidin-1-yl)pyrazin-2-yl)thio)-3-chloropyridin-2-yl)piperazine-1-carbonyl)cyclohexyl)oxy)-4-(4-methylthiazol-5-yl)benzyl)-1-((S)-2-(1-fluorocyclopropane-1-carboxamido)-3,3-dimethylbutanoyl)-4-hydroxypyrrolidine-2-carboxamide]",52.3,96.1
"CC(=O)N[C@H](C(=O)N1C[C@H](O)C[C@H]1C(=O)NCc1ccc(-c2scnc2C)cc1O[C@H]1CC[C@H](C(=O)N2CC(Nc3cccc(Sc4cnc(N5CCC(C)(CN)CC5)cn4)c3Cl)C2)CC1)C(C)(C)C [Example 27, (2S,4R)-1-((S)-2-acetamido-3,3-dimethylbutanoyl)-N-(2-(((1R,4S)-4-(3-((3-((5-(4-(aminomethyl)-4-methylpiperidin-1-yl)pyrazin-2-yl)thio)-2-chlorophenyl)amino)azetidine-1-carbonyl)cyclohexyl)oxy)-4-(4-methylthiazol-5-yl)benzyl)-4-hydroxypyrrolidine-2-carboxamide]",95.8,99.9
"CC(=O)N[C@H](C(=O)N1C[C@H](O)C[C@H]1C(=O)NCc1ccc(-c2scnc2C)cc1O[C@H]1CC[C@H](C(=O)N2CC(Nc3cccc(Sc4cnc(N5CCC6(CC5)CO[C@@H](C)[C@H]6N)cn4)c3Cl)C2)CC1)C(C)(C)C [Example 29, (2S,4R)-1-((S)-2-acetamido-3,3-dimethylbutanoyl)-N-(2-(((1r,4S)-4-(3-((3-((5-((3S,4S)-4-amino-3-methyl-2-oxa-8-azaspiro[4.5]decan-8-yl)pyrazin-2-yl)thio)-2-chlorophenyl)amino)azetidine-1-carbonyl)cyclohexyl)oxy)-4-(4-methylthiazol-5-yl)benzyl)-4-hydroxypyrrolidine-2-carboxamide]",97.2,99.9
"CC(=O)N[C@H](C(=O)N1C[C@H](O)C[C@H]1C(=O)NCc1ccc(-c2scnc2C)cc1O[C@H]1CC[C@H](C(=O)N2CC(Nc3cccc(Sc4cnc(N5CCC6(CC5)Cc5ccccc5[C@H]6N)cn4)c3Cl)C2)CC1)C(C)(C)C [Example 30, (2S,4R)-1-((S)-2-acetamido-3,3-dimethylbutanoyl)-N-(2-(((1R,4S)-4-(3-((3-((5-((S)-1-amino-1,3-dihydrospiro[indene-2,4′-piperidin]-1′-yl)pyrazin-2-yl)thio)-2-chlorophenyl)amino)azetidine-1-carbonyl)cyclohexyl)oxy)-4-(4-methylthiazol-5-yl)benzyl)-4-hydroxypyrrolidine-2-carboxamide]",86.1,99.9
"CC(=O)N[C@H](C(=O)N1C[C@H](O)C[C@H]1C(=O)NCc1ccc(-c2scnc2C)cc1O[C@H]1CC[C@H](C(=O)N2CC(Nc3nccc(Sc4cnc(N5CCC(C)(CN)CC5)cn4)c3Cl)C2)CC1)C(C)(C)C [Example 38, (2S,4R)-1-((S)-2-acetamido-3,3-dimethylbutanoyl)-N-(2-(((1R,4S)-4-(3-((4-((5-(4-(aminomethyl)-4-methylpiperidin-1-yl)pyrazin-2-yl)thio)-3-chloropyridin-2-yl)amino)azetidine-1-carbonyl)cyclohexyl)oxy)-4-(4-methylthiazol-5-yl)benzyl)-4-hydroxypyrrolidine-2-carboxamide]",97.7,99.5
"CC(=O)N[C@H](C(=O)N1C[C@H](O)C[C@H]1C(=O)NCc1ccc(-c2scnc2C)cc1O[C@H]1CC[C@H](C(=O)N2CCC(Nc3nccc(Sc4cnc(N5CCC(C)(CN)CC5)cn4)c3Cl)CC2)CC1)C(C)(C)C [Example 41, (2S,4R)-1-((S)-2-acetamido-3,3-dimethylbutanoyl)-N-(2-(((1R,4S)-4-(4-((4-((5-(4-(aminomethyl)-4-methylpiperidin-1-yl)pyrazin-2-yl)thio)-3-chloropyridin-2-yl)amino)piperidine-1-carbonyl)cyclohexyl)oxy)-4-(4-methylthiazol-5-yl)benzyl)-4-hydroxypyrrolidine-2-carboxamide]",98.2,99.
"Cc1ncsc1-c1ccc(CNC(=O)[C@@H]2C[C@@H](O)CN2C(=O)[C@@H](NC(=O)C2(F)CC2)C(C)(C)C)c(OCCN2CCC(C(=O)N3CC(Nc4cccc(Sc5cnc(N6CCC(C)(CN)CC6)cn5)c4Cl)C3)CC2)c1 [Example 50, (2S,4R)—N-(2-(2-(4-(3-((3-((5-(4-(aminomethyl)-4-methylpiperidin-1-yl)pyrazin-2-yl)thio)-2-chlorophenyl)amino)azetidine-1-carbonyl)piperidin-1-yl)ethoxy)-4-(4-methylthiazol-5-yl)benzyl)-1-((S)-2-(1-fluorocyclopropane-1-carboxamido)-3,3-dimethylbutanoyl)-4-hydroxypyrrolidine-2-carboxamide]",67.3,97.6
"Cc1ncsc1-c1ccc(CNC(=O)[C@@H]2C[C@@H](O)CN2C(=O)[C@@H](NC(=O)C2(F)CC2)C(C)(C)C)c(OCCN2CCC(C(=O)N3CCC(Nc4cccc(Sc5cnc(N6CCC(C)(CN)CC6)cn5)c4Cl)CC3)CC2)c1 [Example 51, (2S,4R)—N-(2-(2-(4-(4-((3-((5-(4-(aminomethyl)-4-methylpiperidin-1-yl)pyrazin-2-yl)thio)-2-chlorophenyl)amino)piperidine-1-carbonyl)piperidin-1-yl)ethoxy)-4-(4-methylthiazol-5-yl)benzyl)-1-((S)-2-(1-fluorocyclopropane-1-carboxamido)-3,3-dimethylbutanoyl)-4-hydroxypyrrolidine-2-carboxamide]",32.9,92.6
"Cc1ncsc1-c1ccc(CNC(=O)[C@@H]2C[C@@H](O)CN2C(=O)[C@@H](NC(=O)C2(F)CC2)C(C)(C)C)c(OCCN2CCC(C(=O)N3CCN(c4nccc(Sc5cnc(N6CCC(C)(CN)CC6)cn5)c4Cl)CC3)CC2)c1 [Example 52, (2S,4R)—N-(2-(2-(4-(4-(4-((5-(4-(aminomethyl)-4-methylpiperidin-1-yl)pyrazin-2-yl)thio)-3-chloropyridin-2-yl)piperazine-1-carbonyl)piperidin-1-yl)ethoxy)-4-(4-methylthiazol-5-yl)benzyl)-1-((S)-2-(1-fluorocyclopropane-1-carboxamido)-3,3-dimethylbutanoyl)-4-hydroxypyrrolidine-2-carboxamide]",20.5,91.9
"Cc1ncsc1-c1ccc(CNC(=O)[C@@H]2C[C@@H](O)CN2C(=O)[C@@H](NC(=O)C2(F)CC2)C(C)(C)C)c(OCCN2CCN(C(=O)C3CN(c4nccc(Sc5cnc(N6CCC(C)(CN)CC6)cn5)c4Cl)C3)CC2)c1 [Example 53, (2S,4R)—N-(2-(2-(4-(1-(4-((5-(4-(aminomethyl)-4-methylpiperidin-1-yl)pyrazin-2-yl)thio)-3-chloropyridin-2-yl)azetidine-3-carbonyl)piperazin-1-yl)ethoxy)-4-(4-methylthiazol-5-yl)benzyl)-1-((S)-2-(1-fluorocyclopropane-1-carboxamido)-3,3-dimethylbutanoyl)-4-hydroxypyrrolidine-2-carboxamide]",70.4,99.4
